PubChem BioAssay (NCI)
Several values for one entry are separate records, joined by “and”; a condition that tells them apart may be missing. Identical values can stand only once.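 Step 1: Grow cells in 96-well plates. Step 2: Expose to compound for 48 hours at 5 concentrations. Step 3: Interpolate endpoints linearly; if unreached, use highest concentration. GI50 marks 50% less growth. Definition used: TGI = concentration required for complete inhibition of growth.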

How the values were obtained:
Assay in all cases: NCI-60 cell line screen, 48 h
LOX IMVI melanoma = test system: LOX IMVI melanoma
EKVX NSCLC = test system: EKVX NSCLC
SNB-19 CNS = test system: SNB-19 CNS
NCI-H226 lung = test system: NCI-H226 lung
HOP-62 NSCLC = test system: HOP-62 NSCLC
SK-MEL-5 melanoma = test system: SK-MEL-5 melanoma
RXF 393 renal = test system: RXF 393 renal
SF-295 CNS = test system: SF-295 CNS
SNB-75 CNS = test system: SNB-75 CNS
M14 melanoma = test system: M14 melanoma

SMILES | TGI (LOX IMVI melanoma) | TGI (EKVX NSCLC) | TGI (SNB-19 CNS) | TGI (NCI-H226 lung) | TGI (HOP-62 NSCLC) | TGI (SK-MEL-5 melanoma) | TGI (RXF 393 renal) | TGI (SF-295 CNS) | TGI (SNB-75 CNS) | TGI (M14 melanoma) | GI50 (M14 melanoma) | GI50 (SNB-19 CNS) | GI50 (NCI-H226 lung) | GI50 (SF-295 CNS) | GI50 (LOX IMVI melanoma) | GI50 (EKVX NSCLC) | GI50 (HOP-62 NSCLC) | GI50 (SK-MEL-5 melanoma) | GI50 (RXF 393 renal) | GI50 (SNB-75 CNS)
c1csc(C(NC2=NCCO2)C2CC2)c1 (centres undefined) | > 100 µM | > 100 µM | > 100 µM | > 100 µM | > 100 µM | > 100 µM | > 100 µM | > 100 µM | > 100 µM | – | – | – | – | – | – | – | – | – | – | –
O=C([O-])C1([n+]2c(-c3ccccc3)cc(-c3ccccc3)cc2-c2ccccc2)CC1 | > 100 µM | > 100 µM | > 100 µM | > 100 µM | > 100 µM | > 100 µM | > 100 µM | > 100 µM | > 100 µM | > 100 µM | – | – | – | – | – | – | – | – | – | –
CC(N)=O.[Cl][Pt][Cl].[NH-]c1ccn(C2OC(CO)C(O)C2O)c(=O)n1 (centres undefined) | > 100 µM | > 100 µM | > 100 µM | > 100 µM | > 100 µM | > 100 µM | > 100 µM | > 100 µM | > 100 µM | > 100 µM | – | – | – | – | – | – | – | – | – | –
O=S(=O)(c1ccc2ccccc2c1)N1CCN(S(=O)(=O)c2ccc3ccccc3c2)CC1 | > 100 µM | > 100 µM | > 100 µM | > 100 µM | > 100 µM | > 100 µM | > 100 µM | > 100 µM | 60 µM | > 100 µM | – | – | – | – | – | – | – | – | – | –
Clc1cccc(C2SCc3nc4ccccc4n32)c1 (centres undefined) | 30.8 µM | 52.4 µM | – | 33.7 µM | 55.9 µM | – | 41.7 µM | > 100 µM | 21.3 µM | 50.5 µM | – | – | – | – | – | – | – | – | – | –
CO/C(=N\N=C(/c1ccccc1)C(F)(F)F)c1ccncc1 | – | – | > 100 µM | 77.4 µM | > 100 µM | 57 µM | > 100 µM | > 100 µM | > 100 µM | > 100 µM | – | – | – | – | – | – | – | – | – | –
Clc1ccc(-c2nnc(-c3nsc4ccccc34)o2)cc1 | > 100 µM | > 100 µM | > 100 µM | – | 33.6 µM | > 100 µM | 99.4 µM | – | 24.6 µM | > 100 µM | – | – | – | – | – | – | – | – | – | –
N/C(=N\N=C/c1cc([N+](=O)[O-])cc([N+](=O)[O-])c1O)NO | > 100 µM | > 100 µM | > 100 µM | > 100 µM | > 39.1 µM | > 38.4 µM | > 100 µM | > 100 µM | > 80.9 µM | – | – | – | – | – | – | – | – | – | – | –
CC(=O)Nc1cc(/C=C\C(=O)N2CC(CCl)c3c2cc(N)c2ccccc32)n(C)n1 (centres undefined) | – | – | – | – | – | – | > 100 µM | – | 0.0141 µM and 0.0459 µM | – | 0.0138 µM | 0.0277 µM | 0.0173 µM | 0.0426 µM | – | – | – | – | – | –
Cc1cc(C)c(S(=O)(=O)N(CCCN)OCCCN)c(C)c1 | > 100 µM | > 100 µM | > 100 µM | > 100 µM | > 100 µM | > 100 µM | > 100 µM | > 100 µM | > 100 µM | > 100 µM | – | – | – | – | – | – | – | – | – | –
Fc1ccc(C(OCCN2CC3CC2CN3)c2ccc(F)cc2)cc1 (centres undefined) | > 100 µM | – | – | > 100 µM | > 100 µM | 30.9 µM | > 100 µM | > 100 µM | > 100 µM | – | – | – | – | – | – | – | – | – | – | –
CCN1C(=O)N2C(OC)c3ccccc3C(Br)C2(OC)C1=O (centres undefined) | > 100 µM | – | > 100 µM | > 100 µM | > 100 µM | > 100 µM | – | > 100 µM | > 100 µM | > 100 µM | – | – | – | – | – | – | – | – | – | –
N=C(N)c1ccc(N=Nc2c(O)ccc3cc(O)ccc23)cc1 | – | > 100 µM | > 100 µM | > 100 µM | > 100 µM | > 100 µM | > 100 µM | > 100 µM | – | > 100 µM | – | – | – | – | – | – | – | – | – | –
O=C(/C=C\c1ccc(/C=C/C(=O)Nc2cccc(C3=NCCCN3)c2)cc1)Nc1cccc(C2=NCCCN2)c1 | > 100 µM | – | > 100 µM | – | > 100 µM | > 83.5 µM | > 100 µM | > 100 µM | > 100 µM | – | – | – | – | – | – | – | – | – | – | –
CC1=NN(C(=O)c2ccc(C)cc2)C(=O)C1N=Nc1ccccc1C(=O)O (centres undefined) | > 100 µM | > 100 µM | > 100 µM | > 100 µM | > 100 µM | > 100 µM | > 100 µM | > 100 µM | 98.9 µM | – | – | – | – | – | – | – | – | – | – | –
CC1CCN(c2cc(-c3cc4ccccc4o3)oc(=O)c2C#N)CC1 | > 100 µM | > 100 µM | > 100 µM | > 100 µM | – | > 100 µM | > 100 µM | > 100 µM | > 100 µM | > 100 µM | – | – | – | – | – | – | – | – | – | –
CCOC(=O)[C@H]1Nc2c(cccc2[N+](=O)[O-])C2c3ccccc3CC21 (some centres undefined) | > 100 µM | – | > 100 µM | > 100 µM | > 100 µM | > 100 µM | 45.8 µM | > 100 µM | > 100 µM | > 100 µM | – | – | – | – | – | – | – | – | – | –
Cc1ccc2oc3c(ccc(=O)n3C)c(=O)c2c1 | > 100 µM | > 100 µM | > 100 µM | > 100 µM | > 100 µM | > 100 µM | > 100 µM | > 100 µM | > 100 µM | > 100 µM | – | – | – | – | – | – | – | – | – | –
O=c1[nH]c(=S)[nH]c2c(C3OC(CO)C(O)C3O)nsc12 (centres undefined) | > 100 µM | > 100 µM | – | > 100 µM | > 100 µM | > 100 µM | > 100 µM | > 100 µM | > 100 µM | > 100 µM | – | – | – | – | – | – | – | – | – | –
CCOc1cc(/C=C/C(=O)CC(=O)/C=C/c2ccc(OC(=O)CNCCN(CC)CC)c(OCC)c2)ccc1OC(=O)CNCCN(CC)CC | 2.44 µM | 3.58 µM | 14.2 µM | 5.17 µM | 6.06 µM | 3.17 µM | 2.03 µM | 23.4 µM | 62.4 µM | 4.23 µM | 1.74 µM | 2.86 µM | 2.15 µM | 6.26 µM | 1.05 µM | 1.5 µM | 2.5 µM | 1.55 µM | 0.681 µM | 6 µM
